Patent publication US11053218B2, “3-(1-oxoisoindolin-2-yl)piperidine-2,6-dione derivatives and uses thereof” (Novartis AG, priority 2017, dated 2021)
Where two headings read alike, the source gives them in different places.

What was measured:
[1] = target: IKZF2 (Homo sapiens, UniProt Q96SW2+Q9UKS7); assay: Prolabel quantification of IKZF2 protein levels in 293GT cells; type: cell-based
Procedure: (§1) The Prolabel system from DiscoverX was used to develop high-throughput and quantitative assays to measure changes in IKZF1, IKZF2 and GSPT1 protein levels in response to compounds. The prolabel tag was derived from the alpha fragment of beta galactosidase and has the following protein sequence: mssnslavvlqrrdwenpgvtqlnrlaahppfaswrnseeartdrpsqqlrslnge. The complementary fragment of beta-galactosidase (from DiscoverX), is added to the prolabel tag to form an active beta galactosidase enzyme whose activity can be precisely measured. In this way, the levels of a fusion protein with the prolabel tag can be quantified in cell lysates.
(§2) Lentiviral vectors, based on the Invitrogen pLenti6.2/V5 DEST backbone, were constructed that placed the prolabel tag upstream of IKZF1, IKZF2 or GSPT1 and expressed the fusion protein from a CMV promoter.
(§3) To ensure moderate and consistent expression of the prolabel fusion proteins across all cells in the population, stable cell lines were constructed from cells expressing a single copy of the construct. Lentivirus packaged with the constructs was made using the Virapower kit from Invitrogen.
(§4) The levels of prolabel tagged fusion proteins in compound treated cell lines were measured as follows:
(§5) Day 1, Cells were diluted to 1.0×10^6 cells/ml in normal growth medium. 17.5 μL of cells were plated in each well of a solid white 384 well plate. Plates were incubated overnight in a 37° C. tissue culture incubator.
(§6) Day 2, Serial dilutions of compounds were made in 384 well plates from 10 mM stocks. 15 μL of DMSO was added to each well of a 384 well plate. In the first column 15 μL of stock compound was added. The solution was mixed and 15 μL was transferred to the next column. This was repeated until 20 two-fold dilutions were prepared. 2.5 μL of diluted compounds were transferred into 60 μL of cell culture medium in another 384 well plate, and mixed well. 2.5 μL of this mixture was added to the plated cells. The final DMSO concentration was 0.5% and the highest concentration of compound was 50 μM. Plates were incubated overnight (e.g., about 14 h, 18 h, or 24 h) in a 37° C. tissue culture incubator.
(§7) Day 3, Plates were removed from the incubator and allowed to equilibrate at rt for 30 minutes. Prolabel substrate (DiscoverX PathHunter Prolabel Detection Kit, User manual: 93-0180) was added as described by the manufacturers protocols. Plates were incubated at rt for three hours and luminescence was read using an Envision reader (Perkin Elmer) Data was analyzed and visualized using the Spotfire software package.

[2] = target: IKZF1 (Homo sapiens, UniProt Q13422+Q96SW2); assay: Prolabel quantification of IKZF1 protein levels in 293GT cells; type: cell-based; conditions: Prolabel assay, read-out: IKZF1 EC50
Chain of IKZF1 (Q13422 whole entry): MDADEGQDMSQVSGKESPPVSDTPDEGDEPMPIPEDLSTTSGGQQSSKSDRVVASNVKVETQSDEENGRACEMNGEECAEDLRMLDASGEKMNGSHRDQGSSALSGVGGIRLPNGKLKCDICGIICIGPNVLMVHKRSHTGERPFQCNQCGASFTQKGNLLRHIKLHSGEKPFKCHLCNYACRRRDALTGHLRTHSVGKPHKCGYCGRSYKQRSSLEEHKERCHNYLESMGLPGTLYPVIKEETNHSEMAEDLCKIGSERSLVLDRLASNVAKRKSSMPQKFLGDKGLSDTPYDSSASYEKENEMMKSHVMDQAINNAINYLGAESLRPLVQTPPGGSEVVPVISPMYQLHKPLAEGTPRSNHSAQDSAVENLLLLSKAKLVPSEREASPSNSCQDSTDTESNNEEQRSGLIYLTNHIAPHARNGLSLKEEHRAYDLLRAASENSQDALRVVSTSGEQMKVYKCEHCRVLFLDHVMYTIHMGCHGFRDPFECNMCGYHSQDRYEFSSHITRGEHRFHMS
Chain of IKZF1 (Q96SW2 whole entry): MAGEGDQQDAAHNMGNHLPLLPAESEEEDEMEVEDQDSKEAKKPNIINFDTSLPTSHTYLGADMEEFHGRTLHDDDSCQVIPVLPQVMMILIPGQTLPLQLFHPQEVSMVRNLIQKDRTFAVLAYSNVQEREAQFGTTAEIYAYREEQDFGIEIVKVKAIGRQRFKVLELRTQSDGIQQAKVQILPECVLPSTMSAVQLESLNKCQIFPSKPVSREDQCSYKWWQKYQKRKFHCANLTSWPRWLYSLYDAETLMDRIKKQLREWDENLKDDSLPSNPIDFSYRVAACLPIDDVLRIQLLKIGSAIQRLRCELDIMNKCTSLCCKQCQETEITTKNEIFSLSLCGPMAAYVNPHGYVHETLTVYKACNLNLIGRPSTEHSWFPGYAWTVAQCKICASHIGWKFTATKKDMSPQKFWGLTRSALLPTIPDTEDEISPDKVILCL
Chain of IKZF1 (Q16531 whole entry partner): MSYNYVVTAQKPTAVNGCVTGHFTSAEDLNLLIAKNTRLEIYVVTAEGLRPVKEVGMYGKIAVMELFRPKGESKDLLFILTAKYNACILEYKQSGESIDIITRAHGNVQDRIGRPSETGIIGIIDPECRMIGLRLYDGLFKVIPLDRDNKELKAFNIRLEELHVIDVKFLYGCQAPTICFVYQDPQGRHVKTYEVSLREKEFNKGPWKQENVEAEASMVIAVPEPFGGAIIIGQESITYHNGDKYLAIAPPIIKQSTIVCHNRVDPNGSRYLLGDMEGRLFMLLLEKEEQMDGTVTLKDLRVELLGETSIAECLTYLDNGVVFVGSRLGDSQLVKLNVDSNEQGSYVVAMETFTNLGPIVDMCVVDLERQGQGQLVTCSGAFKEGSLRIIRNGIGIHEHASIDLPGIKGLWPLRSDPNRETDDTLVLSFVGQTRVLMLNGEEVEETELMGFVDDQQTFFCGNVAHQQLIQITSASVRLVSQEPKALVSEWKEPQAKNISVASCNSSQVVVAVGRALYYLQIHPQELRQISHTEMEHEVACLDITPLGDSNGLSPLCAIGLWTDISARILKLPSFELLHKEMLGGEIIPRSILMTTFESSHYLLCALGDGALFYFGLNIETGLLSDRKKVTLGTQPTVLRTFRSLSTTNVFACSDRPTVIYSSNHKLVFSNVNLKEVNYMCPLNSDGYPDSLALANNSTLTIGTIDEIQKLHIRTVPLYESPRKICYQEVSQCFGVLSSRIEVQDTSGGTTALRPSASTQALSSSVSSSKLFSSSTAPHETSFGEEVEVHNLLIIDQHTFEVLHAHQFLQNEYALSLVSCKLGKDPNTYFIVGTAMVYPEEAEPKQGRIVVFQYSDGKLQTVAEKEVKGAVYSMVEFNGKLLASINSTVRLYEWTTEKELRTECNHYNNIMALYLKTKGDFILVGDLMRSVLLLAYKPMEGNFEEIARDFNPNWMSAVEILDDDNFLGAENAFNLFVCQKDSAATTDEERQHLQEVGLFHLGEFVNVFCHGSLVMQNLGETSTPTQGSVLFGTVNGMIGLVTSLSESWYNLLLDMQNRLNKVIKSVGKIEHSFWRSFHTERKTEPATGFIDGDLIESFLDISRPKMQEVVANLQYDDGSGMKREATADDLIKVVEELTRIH
Procedure: as §1, §2, §3, §4, §5, §6, §7

[3] = 24 h, 10 μM, 24 h, 293GT cells; read-out: IKZF2 % protein reduction at 10 μM, 24 h
[4] = Prolabel assay, 293GT cells; read-out: IKZF2 EC50

Chain of IKZF2 (Q9UKS7 whole entry, the tested form may be a part): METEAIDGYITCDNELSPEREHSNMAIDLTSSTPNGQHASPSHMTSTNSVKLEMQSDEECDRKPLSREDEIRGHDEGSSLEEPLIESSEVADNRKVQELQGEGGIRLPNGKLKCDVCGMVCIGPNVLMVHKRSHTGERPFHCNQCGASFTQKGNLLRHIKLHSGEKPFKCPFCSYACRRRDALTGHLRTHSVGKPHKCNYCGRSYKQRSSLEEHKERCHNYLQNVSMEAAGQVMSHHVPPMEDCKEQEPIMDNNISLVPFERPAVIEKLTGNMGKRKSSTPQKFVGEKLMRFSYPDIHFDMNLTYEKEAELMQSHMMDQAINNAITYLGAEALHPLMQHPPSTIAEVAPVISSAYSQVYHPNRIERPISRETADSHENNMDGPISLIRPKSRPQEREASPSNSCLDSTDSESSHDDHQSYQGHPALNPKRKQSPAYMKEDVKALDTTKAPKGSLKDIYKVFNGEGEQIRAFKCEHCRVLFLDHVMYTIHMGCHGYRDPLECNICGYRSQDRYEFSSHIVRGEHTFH
Chain of IKZF2 (Q96SW2 whole entry, the tested form may be a part): as the sequence (Q96SW2 whole entry) above
Chain of IKZF2 (Q16531 whole entry partner, the tested form may be a part): as the sequence (Q16531 whole entry partner) above

inhibition at 10 µM [1, 3] [%]	DC50 [1, 4] [nM]	DC50 [2] [nM]	IKZF2 protein levels as compared to the control (DMSO) ([1]; Prolabel assay in HEK293GT cells, bar graph)	Structure (SMILES)	inhibition at 10 µM ([1]; 10 μM, 24 h, 293GT cells; read-out: IKZF2 % protein reduction at 10 μM, 24 h) [%]
75	11	> 30000	–	O=C1CCC(N2Cc3cc(C4CCN(Cc5ccc(CF)cc5)CC4)ccc3C2=O)C(=O)N1 (stereo not shown) [Compound I-63, 3-(5-(1-(4-(fluoromethyl)benzyl)piperidin-4-yl)-1-oxoisoindolin-2-yl)piperidine-2,6-dione]	–
70	9	> 30000	–	CCc1ccc(CN2CCC(c3ccc4c(c3)CN(C3CCC(=O)NC3=O)C4=O)CC2)cc1 (stereo not shown) [Compound I-66, 3-(5-(1-(4-ethylbenzyl)piperidin-4-yl)-1-oxoisoindolin-2-yl)piperidine-2,6-dione]	–
70	58	> 30000	–	COc1ccccc1CN1CCC(c2ccc3c(c2)CN(C2CCC(=O)NC2=O)C3=O)CC1 (stereo not shown) [Compound I-67, 3-(5-(1-(2-methoxybenzyl)piperidin-4-yl)-1-oxoisoindolin-2-yl)piperidine-2,6-dione]	–
80	15	> 30000	decreased	Cc1ccc(CN2CCC(c3ccc4c(c3)CN(C3CCC(=O)NC3=O)C4=O)CC2)cc1F (stereo not shown) [Compound I-69, 3-(5-(1-(3-fluoro-4-methylbenzyl)piperidin-4-yl)-1-oxoisoindolin-2-yl)piperidine-2,6-dione]	–
55	4500	> 30000	–	O=C1CCC(N2Cc3cc(C4CCN(Cc5ccc(C(=O)O)cc5)CC4)ccc3C2=O)C(=O)N1 (stereo not shown) [Compound I-72, 4-((4-(2-(2,6-dioxopiperidin-3-yl)-1-oxoisoindolin-5-yl)piperidin-1-yl)methyl)benzoic acid]	–
70	11	> 30000	–	O=C1CCC(N2Cc3cc(C4CCN(Cc5cccc(C(F)F)c5)CC4)ccc3C2=O)C(=O)N1 (stereo not shown) [Compound I-73, 3-(5-(1-(3-(difluoromethyl)benzyl)piperidin-4-yl)-1-oxoisoindolin-2-yl)piperidine-2,6-dione]	–
55	2100	> 30000	–	O=C1CCC(N2Cc3cc(C4CCN(Cc5cccc(C(=O)O)c5)CC4)ccc3C2=O)C(=O)N1 (stereo not shown) [Compound I-74, 3-((4-(2-(2,6-dioxopiperidin-3-yl)-1-oxoisoindolin-5-yl)piperidin-1-yl)methyl)benzoic acid]	–
80	20	> 30000	–	CCCc1ccc(CN2CCC(c3ccc4c(c3)CN(C3CCC(=O)NC3=O)C4=O)CC2)cc1 (stereo not shown) [Compound I-75, 3-(1-oxo-5-(1-(4-propylbenzyl)piperidin-4-yl)isoindolin-2-yl)piperidine-2,6-dione]	–
75	17	> 30000	–	O=C1CCC(N2Cc3cc(C4CCN(Cc5ccc(C(F)(F)F)cc5)CC4)ccc3C2=O)C(=O)N1 (stereo not shown) [Compound I-76, 3-(1-oxo-5-(1-(4-(trifluoromethyl)benzyl)piperidin-4-yl)isoindolin-2-yl)piperidine-2,6-dione]	–
40	210	> 30000	–	O=C1CCC(N2Cc3cc(C4CCN(Cc5ccc(C(F)(F)F)cn5)CC4)ccc3C2=O)C(=O)N1 (stereo not shown) [Compound I-78, 3-(1-oxo-5-(1-((5-(trifluoromethyl)pyridin-2-yl)methyl)piperidin-4-yl)isoindolin-2-yl)piperidine-2,6-dione]	–
75	3	> 30000	–	O=C1CCC(N2Cc3cc(C4CCN(Cc5cccc(OC(F)F)c5)CC4)ccc3C2=O)C(=O)N1 (stereo not shown) [Compound I-79, 3-(5-(1-(3-(difluoromethoxy)benzyl)piperidin-4-yl)-1-oxoisoindolin-2-yl)piperidine-2,6-dione]	–
60	12	> 30000	–	O=C1CCC(N2Cc3cc(C4CCN(Cc5ccccc5OC(F)F)CC4)ccc3C2=O)C(=O)N1 (stereo not shown) [Compound I-80, 3-(5-(1-(2-(difluoromethoxy)benzyl)piperidin-4-yl)-1-oxoisoindolin-2-yl)piperidine-2,6-dione]	–
60	4	> 30000	–	O=C1CCC(N2Cc3cc(C4CCN(Cc5cccc6c5OCCO6)CC4)ccc3C2=O)C(=O)N1 (stereo not shown) [Compound I-82, 3-(5-(1-((2,3-dihydrobenzo[b][1,4]dioxin-5-yl)methyl)piperidin-4-yl)-1-oxoisoindolin-2-yl)piperidine-2,6-dione]	–
80	52	> 30000	–	O=C1CCC(N2Cc3cc(C4CCN(Cc5ccc6c(c5)OCCO6)CC4)ccc3C2=O)C(=O)N1 (stereo not shown) [Compound I-83, 3-(5-(1-((2,3-dihydrobenzo[b][1,4]dioxin-6-yl)methyl)piperidin-4-yl)-1-oxoisoindolin-2-yl)piperidine-2,6-dione]	–
80	13	> 30000	–	O=C1CCC(N2Cc3cc(C4CCN(Cc5ccc6c(c5)OC(F)(F)O6)CC4)ccc3C2=O)C(=O)N1 (stereo not shown) [Compound I-87, 3-(5-(1-((2,2-difluorobenzo[b][1,3]dioxol-5-yl)methyl)piperidin-4-yl)-1-oxoisoindolin-2-yl)piperidine-2,6-dione]	–
20	130	> 30000	–	O=C1CCC(N2Cc3cc(C4CCN(Cc5ncccn5)CC4)ccc3C2=O)C(=O)N1 (stereo not shown) [Compound I-95, 3-(1-oxo-5-(1-(pyrimidin-2-ylmethyl)piperidin-4-yl)isoindolin-2-yl)piperidine-2,6-dione]	–
60	17	> 30000	–	O=C1CCC(N2Cc3cc(C4CCN(Cc5ccc(F)cc5F)CC4)ccc3C2=O)C(=O)N1 (stereo not shown) [Compound I-101, 3-(5-(1-(2,4-difluorobenzyl)piperidin-4-yl)-1-oxoisoindolin-2-yl)piperidine-2,6-dione]	–
60	5	> 30000	–	O=C1CCC(N2Cc3cc(C4CCN(Cc5ccccc5C5CC5)CC4)ccc3C2=O)C(=O)N1 (stereo not shown) [Compound I-104, 3-(5-(1-(2-cyclopropylbenzyl)piperidin-4-yl)-1-oxoisoindolin-2-yl)piperidine-2,6-dione]	–
50	14	> 30000	–	O=C1CCC(N2Cc3cc(C4CCN(Cc5ccccc5C(F)(F)F)CC4)ccc3C2=O)C(=O)N1 (stereo not shown) [Compound I-106, 3-(1-oxo-5-(1-(2-(trifluoromethyl)benzyl)piperidin-4-yl)isoindolin-2-yl)piperidine-2,6-dione]	–
40	29	> 50000	–	O=C1CCC(N2Cc3cc(C4CCN(Cc5cccc6cccnc56)CC4)ccc3C2=O)C(=O)N1 (stereo not shown) [Compound I-114, 3-(1-oxo-5-(1-(quinolin-8-ylmethyl)piperidin-4-yl)isoindolin-2-yl)piperidine-2,6-dione]	–
60	72	> 30000	–	Cn1cc(CN2CCC(c3ccc4c(c3)CN(C3CCC(=O)NC3=O)C4=O)CC2)cn1 (stereo not shown) [Compound I-115, 3-(5-(1((1-methyl-1H-pyrazol-4-yl)methyl)piperidin-4-yl)-1-oxoisoindolin-2-yl)piperidine-2,6-dione]	–

Structure (SMILES)	inhibition at 10 µM [1, 3] [%]	DC50 [1, 4] [nM]	DC50 [2] [nM]	IKZF2 protein levels as compared to the control (DMSO) ([1]; Prolabel assay in HEK293GT cells, bar graph)	inhibition at 10 µM ([1]; 10 μM, 24 h, 293GT cells; read-out: IKZF2 % protein reduction at 10 μM, 24 h) [%]
CC(C)(C)c1ccc(CN2CCC(c3ccc4c(c3)CN(C3CCC(=O)NC3=O)C4=O)CC2)cc1 (stereo not shown) [Compound I-84, 3-(5-(1-(4-(tert-butyl)benzyl)piperidin-4-yl)-1-oxoisoindolin-2-yl)piperidine-2,6-dione]	–	15	> 30000	–	60
